Eleven molecules from ChEMBL document CHEMBL1201862, “PubChem BioAssay data set” (2004) can be followed below.

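1) Cells in 96-well plates. 2) Compound, 48 h, 5 concentrations. 3) Linear interpolation between surrounding doses. 4) Unreached endpoint = highest concentration. GI50: concentration for 50% inhibition of growth.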 Calls of active or inactive are those of the source. No stated cut-off is given here; in the data, active = GI50 up to about 1.1 µM and inactive = higher.

Among the test systems are IGROV-1; SK-MEL-28; CAKI-1; CCRF-CEM; RPMI-8226; M14; UACC-62; HCT-15; 786-0; NCI-H226; NCI-H460; NCI-H23; NCI/ADR-RES; MOLT-4; HT-29; A549; NCI-H522; SNB-75; A498; BT-549.
Common to all, as to test: NCI anticancer screen, dose series, 48 h

As to `NCCN1CC2CCC(CC2)C1`, the GI50 in the test with IGROV-1, with SK-MEL-28, in the test on CAKI-1, with CCRF-CEM, with RPMI-8226 and with M14 was > 10 µM (inactive) in each case. In addition, the GI50 with UACC-62 is > 10 µM (inactive); with HCT-15 it was over 10 µM; with 786-0 it was > 10 µM (inactive); in the test with NCI-H226, > 10 µM (inactive); in the test with NCI-H460, > 10 µM (inactive); in the test on NCI-H23, > 10 µM (inactive). Further, the GI50 with NCI/ADR-RES, in the test with MOLT-4, with HT-29, in the test with A549, with NCI-H522 and in the test on SNB-75 was > 10 µM (inactive) throughout. Besides, the GI50 in the test on A498 is > 10 µM (inactive).
Regarding `COC(=O)CNC(=O)C(CSC(=O)OCC1c2ccccc2-c2ccccc21)NC(=O)CCC(NC(=O)OCC1c2ccccc2-c2ccccc21)C(=O)OC` (configuration not stated), the GI50 was 17.8 µM (inactive) in the test with IGROV-1; 17.5 µM (inactive) in the test on BT-549; 38.1 µM (inactive) in the test with SK-MEL-28; 7.5 µM (inactive) in the test on CAKI-1; 14 µM (inactive) in the test on CCRF-CEM; 23.1 µM (inactive) in the test on RPMI-8226. Moreover, the GI50 was 24 µM (inactive) in the test with M14; 28 µM in the test on HCT-15; 13.7 µM (inactive) in the test with 786-0; 99.1 µM (inactive) in the test on NCI-H226; 24.4 µM (inactive) in the test on NCI-H460; 17.5 µM (inactive) with NCI-H23. Besides, the GI50 is 41 µM (inactive) in the test on NCI/ADR-RES, 21.2 µM (inactive) with MOLT-4, 14.5 µM (inactive) in the test on A549 and 4.65 µM (inactive) with NCI-H522.
As to `CN(C)c1ccc2oc(=O)c3ccccc3c2c1`, the GI50 with IGROV-1 was 51.4 µM (inactive); in the test with BT-549, 34.4 µM (inactive); in the test on SK-MEL-28, > 100 µM (inactive); with CAKI-1, 28.9 µM (inactive); with CCRF-CEM it was > 100 µM (inactive); in the test with RPMI-8226, > 100 µM (inactive). Further, the GI50 in the test with M14 is > 100 µM (inactive); in the test on UACC-62, 99.8 µM (inactive); with HCT-15, over 100 µM; with 786-0, 30.5 µM (inactive); with NCI-H226, 46.7 µM (inactive); with NCI-H460 it was > 100 µM (inactive). Further, the GI50 with NCI-H23 is 22.9 µM (inactive); in the test on MOLT-4, > 100 µM (inactive); in the test with HT-29, > 100 µM (inactive); with A549, > 100 µM (inactive); in the test with NCI-H522, 55.8 µM (inactive); with SNB-75, 27.5 µM (inactive). Besides, the GI50 in the test on A498 was 34.8 µM (inactive).
In the case of `CC1=C(C)C(=O)O[C@@H]([C@](C)(O)[C@]2(O)CC[C@@]3(O)[C@@H]4C[C@H](O)[C@]5(O)[C@@H](O)C=CC(=O)[C@]5(C)[C@H]4CC[C@]23C)C1`, the GI50 is > 100 µM (inactive) in the test with IGROV-1; > 100 µM (inactive) in the test on BT-549; > 100 µM (inactive) in the test with SK-MEL-28; > 100 µM (inactive) in the test with CAKI-1; 28.4 µM (inactive) in the test on CCRF-CEM; 49.9 µM (inactive) in the test with RPMI-8226. Further, the GI50 in the test with M14 is > 100 µM (inactive); with UACC-62, 47.6 µM (inactive); in the test with HCT-15, over 100 µM; in the test on 786-0, > 100 µM (inactive); in the test on NCI-H226, > 100 µM (inactive); with NCI-H460, > 100 µM (inactive). Further, the GI50 in the test on NCI-H23 was > 100 µM (inactive); in the test on MOLT-4 it was > 100 µM (inactive); with HT-29 it was 86.3 µM (inactive); in the test with A549 it was > 100 µM (inactive); in the test on NCI-H522, 42.3 µM (inactive); with SNB-75, 37.2 µM (inactive). For the same molecule, in the test with A498, the GI50 is > 100 µM (inactive).
As to `CCCOc1ccc(-c2nc(-c3ccc(/N=C/c4ccc(N(CCOS(C)(=O)=O)CCOS(C)(=O)=O)cc4C)cc3)cs2)cc1`, the GI50 in the test on IGROV-1 was 20 µM (inactive); in the test on SK-MEL-28, 67.9 µM (inactive); in the test on CAKI-1, 1.3 µM (inactive); with CCRF-CEM it was 2.58 µM (inactive); with RPMI-8226 it was 61.1 µM (inactive); in the test on M14, 16.8 µM (inactive). The GI50 was 5.31 µM (inactive) in the test with UACC-62; 23.4 µM in the test with HCT-15; 3.35 µM (inactive) in the test on 786-0; 22.9 µM (inactive) in the test with NCI-H226; 0.286 µM (active) with NCI-H460; 10.1 µM (inactive) with NCI-H23. Also, the GI50 is 23.6 µM (inactive) in the test on NCI/ADR-RES; 5.35 µM (inactive) in the test with MOLT-4; 17.9 µM (inactive) in the test on HT-29; 4.59 µM (inactive) with A549; 2.16 µM (inactive) in the test on NCI-H522; 2.78 µM (inactive) in the test on SNB-75. For the same molecule, in the test with A498, the GI50 is 7.5 µM (inactive).
Take `Cc1ccc(C(=O)N(C2CCCCC2)C2CCCCC2)cc1/N=N/N(C)C`: the GI50 in the test with IGROV-1 is 15.6 µM (inactive); in the test with BT-549 it was 13.9 µM (inactive); with SK-MEL-28 it was 7.14 µM (inactive); in the test on CAKI-1 it was 12.9 µM (inactive); with CCRF-CEM it was 14.9 µM (inactive); in the test with RPMI-8226 it was 8.75 µM (inactive). The GI50 was 17.6 µM (inactive) with M14; 7.78 µM (inactive) in the test on UACC-62; 14.1 µM in the test on HCT-15; 15.3 µM (inactive) in the test on 786-0; 19.7 µM (inactive) in the test on NCI-H226; 15.1 µM (inactive) with NCI-H460. Besides, the GI50 is 11.3 µM (inactive) in the test with NCI-H23; 19.5 µM (inactive) in the test with NCI/ADR-RES; 14.4 µM (inactive) in the test on MOLT-4; 6.08 µM (inactive) in the test with HT-29; 13.7 µM (inactive) in the test on A549; 6.01 µM (inactive) in the test on NCI-H522.
Turning to `O=C(c1cccc2cc(O)ccc12)c1cn(CCN2CCOCC2)c2ccccc12`, the GI50 is 20.3 µM (inactive) with IGROV-1; 23.4 µM (inactive) in the test with BT-549; 42.6 µM (inactive) in the test with SK-MEL-28; 39.4 µM (inactive) with CAKI-1; 4.06 µM (inactive) with CCRF-CEM; 47.1 µM (inactive) in the test on RPMI-8226. Further, the GI50 in the test on M14 was 20 µM (inactive); with UACC-62 it was 17.7 µM (inactive); with 786-0 it was 21.1 µM (inactive); in the test on NCI-H226, 39.9 µM (inactive); in the test with NCI-H23, 33.3 µM (inactive); in the test with MOLT-4, 34.7 µM (inactive). For the same molecule, the values for the GI50 with HT-29 and with NCI-H522 were 20.7 µM (inactive) and 30.3 µM (inactive), respectively.
For the molecule `CCCCCCCCCN1CCC(=O)C(C(=O)OC)C1` (configuration not stated), the GI50 in the test with CAKI-1 is 15.6 µM (inactive); in the test with CCRF-CEM, 10.1 µM (inactive); in the test on RPMI-8226, 15.6 µM (inactive); with M14, 15.4 µM (inactive); in the test on UACC-62, 12.2 µM (inactive); in the test on HCT-15, 13.4 µM. Further, the GI50 in the test on 786-0 is 16.9 µM (inactive); in the test with NCI-H226 it was 12.9 µM (inactive); in the test on NCI-H460 it was 17.6 µM (inactive); in the test with NCI-H23, 2.96 µM (inactive); in the test on NCI/ADR-RES, 13.6 µM (inactive); in the test with MOLT-4, 13.6 µM (inactive). Moreover, the GI50 in the test with HT-29 is 10.1 µM (inactive); in the test with A549, 16.6 µM (inactive); in the test with NCI-H522, 8.73 µM (inactive); in the test with SNB-75, 17.9 µM (inactive); in the test with A498, 19 µM (inactive).
In the case of `O=C1CCc2cc3c(cc21)CC1(Cc2ccccc2C1)C3`, the GI50 is 4.3 µM (inactive) with IGROV-1; 10.3 µM (inactive) with SK-MEL-28; 0.703 µM (active) with CAKI-1; 2.98 µM (inactive) in the test with CCRF-CEM; 6.27 µM (inactive) in the test on RPMI-8226; 14.9 µM (inactive) with M14. Further, the GI50 was 21.1 µM (inactive) in the test on UACC-62; 13.8 µM with HCT-15; 36.3 µM (inactive) in the test on 786-0; 12.9 µM (inactive) in the test with NCI-H226; 6.31 µM (inactive) with NCI-H460; 26.9 µM (inactive) in the test with NCI-H23. The GI50 in the test with NCI/ADR-RES was 7.31 µM (inactive); with MOLT-4, 0.678 µM (active); in the test on HT-29 it was 3.14 µM (inactive); in the test with A549 it was 12 µM (inactive); in the test on NCI-H522, 9.14 µM (inactive); with SNB-75, 15.7 µM (inactive). In addition, the GI50 in the test on A498 was 12.2 µM (inactive).
As to `CC(=O)OCC1=C2C(OC(=O)C(C)C)CC3(COC(C)=O)OC3/C=C\C3(C)OC3C2OC1=O` (configuration not stated), the GI50 in the test with IGROV-1 was > 100 µM (inactive); in the test with BT-549 it was > 100 µM (inactive); with SK-MEL-28, > 100 µM (inactive); in the test with CAKI-1, > 100 µM (inactive); in the test with CCRF-CEM, 50.5 µM (inactive); in the test with RPMI-8226 it was > 100 µM (inactive). The GI50 in the test on M14 was > 100 µM (inactive); in the test on UACC-62 it was > 100 µM (inactive); in the test on HCT-15, over 100 µM; with 786-0, > 100 µM (inactive); in the test with NCI-H226, > 100 µM (inactive); with NCI-H460 it was > 100 µM (inactive). In addition, the GI50 in the test on NCI-H23, in the test on MOLT-4, in the test with HT-29, with A549, with SNB-75 and in the test on A498 was > 100 µM (inactive) throughout.
As to `Oc1cc(-c2ccccc2)nc2ncccc12`, the GI50 in the test with IGROV-1 is 0.2 µM (active); in the test on SK-MEL-28 it was 0.0743 µM (active); in the test with CAKI-1, 0.0792 µM (active); with CCRF-CEM it was 0.0867 µM (active); in the test with RPMI-8226, 0.171 µM (active); in the test with M14 it was 0.0853 µM (active). In addition, the GI50 in the test with UACC-62 is 0.0396 µM (active); in the test with HCT-15, 0.0227 µM; in the test on 786-0, 0.16 µM (active); in the test with NCI-H226, 0.502 µM (active); with NCI-H460, 0.12 µM (active); with NCI-H23, 0.203 µM (active). In addition, the GI50 with NCI/ADR-RES is 0.0655 µM (active); with MOLT-4, 0.0962 µM (active); in the test on HT-29, 0.0646 µM (active); in the test on A549, 0.385 µM (active); in the test on NCI-H522 it was 0.0525 µM (active); in the test on SNB-75, 0.0975 µM (active). Further, the GI50 in the test with A498 is > 100 µM (inactive).
